Earlier results in US20170196789A1, “REDUCTION OF ORAL AND EPIDERMAL MALODOR IN HUMANS AND ANIMALS” (priority 2014, published 2017).

Key:
[1] = after adhesion to the mucus membrane surface
[2] = in vivo
[3] = chlorhexidine exposure, current animal research

For [H]/N=C(\N/C(=N/[H])NCCCCCCNC(=N)NC(=N)Nc1ccc(Cl)cc1)Nc1ccc(Cl)cc1 [chlorhexidine, Chlorhexidine], the “share of the total consumed amount remaining in the oral cavity” value [1] is listed as “Approximately thirty”, the “absorption through the digestive system” value [2] is listed as “minimal” and the “toxic and/or cancerous effects in animals” value [3] is listed as “does not demonstrate any evidence of toxic and/or cancerous effects”.
